One test addresses β1AR-NlucC (CRISPR) (Homo sapiens, UniProt P08588). As to conditions: CRISPR receptor; relative to adrenaline; agonist.
Test [1] addresses T1, β2AR-NlucC (β2AR) (Homo sapiens, UniProt P07550). In words: cell-based. Conditions: HEK-293T, read-out: CRISPR_mGs Emax.
The target of test [2] is T1, β2AR-NlucC (β2AR). In words: cell-based. Conditions: HEK-293T, read-out: Mini-G Protein Recruitment / Emax (%) ± SEM.
Another test deals with β2AR-NlucC (CRISPR) (Homo sapiens, UniProt P07550). Description: cell-based. As to conditions: HEK-293T, read-out: CRISPR_receptor Emax.

Like-named read-outs stand apart in the source and are kept apart here.

T1 sequence (P07550 whole entry): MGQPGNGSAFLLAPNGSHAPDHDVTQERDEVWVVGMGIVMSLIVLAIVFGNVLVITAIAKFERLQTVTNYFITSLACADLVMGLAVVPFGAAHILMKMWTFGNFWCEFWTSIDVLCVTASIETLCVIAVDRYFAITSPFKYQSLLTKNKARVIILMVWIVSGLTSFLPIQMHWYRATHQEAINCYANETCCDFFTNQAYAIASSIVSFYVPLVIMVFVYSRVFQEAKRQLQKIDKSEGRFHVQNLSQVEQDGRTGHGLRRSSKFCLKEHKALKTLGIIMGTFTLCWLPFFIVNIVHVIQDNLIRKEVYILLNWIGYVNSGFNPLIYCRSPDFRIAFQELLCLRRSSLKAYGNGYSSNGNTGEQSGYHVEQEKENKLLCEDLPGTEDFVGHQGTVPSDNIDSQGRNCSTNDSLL
Chain of β1AR-NlucC (CRISPR) (P08588 whole entry): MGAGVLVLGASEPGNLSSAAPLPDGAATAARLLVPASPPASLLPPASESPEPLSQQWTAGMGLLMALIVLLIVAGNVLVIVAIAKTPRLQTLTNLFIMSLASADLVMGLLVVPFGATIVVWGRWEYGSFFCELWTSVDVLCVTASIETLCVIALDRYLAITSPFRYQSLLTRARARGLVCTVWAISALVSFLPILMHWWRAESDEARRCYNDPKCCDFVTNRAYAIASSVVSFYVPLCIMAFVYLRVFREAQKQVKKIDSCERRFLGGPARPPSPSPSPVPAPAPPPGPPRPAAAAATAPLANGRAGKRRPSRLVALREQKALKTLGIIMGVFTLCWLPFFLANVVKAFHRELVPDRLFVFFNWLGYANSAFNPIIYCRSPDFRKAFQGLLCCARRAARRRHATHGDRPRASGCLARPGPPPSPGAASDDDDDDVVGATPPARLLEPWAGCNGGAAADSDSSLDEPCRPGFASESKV
Chain of β2AR-NlucC (CRISPR) (P07550 whole entry): as the sequence (P07550 whole entry) above

As for `NC[C@H](O)c1ccc(O)c(O)c1` [noradrenaline], at β1AR-NlucC (CRISPR), the “CRISPR_receptor Emax” value was 109 ± 7%. Further, the Emax on β2AR-NlucC (β2AR) [1] was 51 ± 4%; on β2AR-NlucC (β2AR) [2], 85 ± 2%; on β2AR-NlucC (CRISPR), 61 ± 7%.

Source of the values: paper doi:10.1101/2024.06.03.597093v3 (biorxiv, 2024).
